Laboratory results from patent US20030105595A1, “Chi square tests for gene expression” (priority 2001, published 2003).

Experiments:
Assay in all cases: multi-sample expression analysis, band intensity
Assay type in all cases: in vivo
Conditions in all cases: Pooled
band b1i0_51.7 = test system: band b1i0_51.7
Source text: (§1) To practice the invention, one skilled in the art obtains a source of biological samples, as well as expression information about the biological samples, i.e., expression information relative to one or more genes or polypeptides encoded therein. Data is collected for a particular phenotype appearing within a given population under study, whereby expression of that phenotype is to be determined within the biological sample under study. The phenotype is correlated to a specific genotype, which is then represented as a band with a given intentity, thus indicative of gene expression levels, and is then compared to control samples. Alternatively, the response of a gene to dosage with one or more drugs is determined by band intensity. The standard deviation from the mean (StdDev) is calculated for the control samples, and is fit to functional form in the following equation: […]
(§2) A multi-sample expression analysis was run using the program described in Example 1. For each drug run, only runs for genes producing bands with a p-value<10^−5 in at least 2 of the following 3 comparisons were selected: low dose versus vehicle, high dose versus vehicle and low dose versus high dose. […] Since clusters found using all 13K bands included some of the best 2K bands, it was concluded that no essential signal was lost (see FIGS. 3 and 4). […] A comparison using the same analytic tests on only the best 2K bands. It can be seen that the Chi Square metric provides a better distinction between low and high doses than the correlation metric, which is not able to distinguish between the low dose and the high dose (see FIG. 6). The low-dose/high dose statistical variation is more pronounced when only the best 2K bands are selected.

band b1i0_53.0 = test system: band b1i0_53.0
Source text: as §1, §2

band b1i0_54.5 = test system: band b1i0_54.5
Source text: as §1, §2

band b1i0_57.4 = test system: band b1i0_57.4
Source text: as §1, §2

band b1i0_60.7 = test system: band b1i0_60.7
Source text: as §1, §2

band b1i0_62.5 = test system: band b1i0_62.5
Source text: as §1, §2

band b1i0_63.7 = test system: band b1i0_63.7
Source text: as §1, §2

band b1i0_69.4 = test system: band b1i0_69.4
Source text: as §1, §2

Cc1cc(C(C)(C)C)c(O)c(C(C)(C)C)c1 [BHT]
band intensity b1i0_51.7 (band b1i0_51.7; High dose, 1d): 24.21 | band intensity b1i0_51.7 (band b1i0_51.7; High dose, 3d): 25.0702 | band intensity b1i0_51.7 (band b1i0_51.7; High dose, 7d): 17.72 | band intensity b1i0_51.7 (band b1i0_51.7; High dose, 14d): 26.78 | band intensity b1i0_51.7 (band b1i0_51.7; Low dose, 1d): 18.78 | band intensity b1i0_51.7 (band b1i0_51.7; Low dose, 3d): 18.02 | band intensity b1i0_51.7 (band b1i0_51.7; Low dose, 7d): 12.13 | band intensity b1i0_51.7 (band b1i0_51.7; Low dose, 14d): 18.31 | band intensity b1i0_53.0 (band b1i0_53.0; High dose, 1d): 104.3 | band intensity b1i0_53.0 (band b1i0_53.0; High dose, 3d): 101.7 | band intensity b1i0_53.0 (band b1i0_53.0; High dose, 7d): 104.1 | band intensity b1i0_53.0 (band b1i0_53.0; High dose, 14d): 82.87 | band intensity b1i0_53.0 (band b1i0_53.0; Low dose, 1d): 108.8 | band intensity b1i0_53.0 (band b1i0_53.0; Low dose, 3d): 87.18 | band intensity b1i0_53.0 (band b1i0_53.0; Low dose, 7d): 104.5 | band intensity b1i0_53.0 (band b1i0_53.0; Low dose, 14d): 96.38 | band intensity b1i0_54.5 (band b1i0_54.5; High dose, 1d): 82.82 | band intensity b1i0_54.5 (band b1i0_54.5; High dose, 3d): 96.92 | band intensity b1i0_54.5 (band b1i0_54.5; High dose, 7d): 81.74 | band intensity b1i0_54.5 (band b1i0_54.5; High dose, 14d): 93.42 | band intensity b1i0_54.5 (band b1i0_54.5; Low dose, 1d): 93.97 | band intensity b1i0_54.5 (band b1i0_54.5; Low dose, 3d): 101.5 | band intensity b1i0_54.5 (band b1i0_54.5; Low dose, 7d): 92.42 | band intensity b1i0_54.5 (band b1i0_54.5; Low dose, 14d): 91.73 | band intensity b1i0_57.4 (band b1i0_57.4; High dose, 1d): 1177 | band intensity b1i0_57.4 (band b1i0_57.4; High dose, 3d): 1235 | band intensity b1i0_57.4 (band b1i0_57.4; High dose, 7d): 990.2 | band intensity b1i0_57.4 (band b1i0_57.4; High dose, 14d): 1049 | band intensity b1i0_57.4 (band b1i0_57.4; Low dose, 1d): 1182 | band intensity b1i0_57.4 (band b1i0_57.4; Low dose, 3d): 1224 | band intensity b1i0_57.4 (band b1i0_57.4; Low dose, 7d): 1156 | band intensity b1i0_57.4 (band b1i0_57.4; Low dose, 14d): 1229 | band intensity b1i0_60.7 (band b1i0_60.7; High dose, 1d): 71.52 | band intensity b1i0_60.7 (band b1i0_60.7; High dose, 3d): 70.09 | band intensity b1i0_60.7 (band b1i0_60.7; High dose, 7d): 62.31 | band intensity b1i0_60.7 (band b1i0_60.7; High dose, 14d): 68.41 | band intensity b1i0_60.7 (band b1i0_60.7; Low dose, 1d): 72.36 | band intensity b1i0_60.7 (band b1i0_60.7; Low dose, 3d): 69.13 | band intensity b1i0_60.7 (band b1i0_60.7; Low dose, 7d): 79.01 | band intensity b1i0_60.7 (band b1i0_60.7; Low dose, 14d): 90.11 | band intensity b1i0_62.5 (band b1i0_62.5; High dose, 1d): 81.06 | band intensity b1i0_62.5 (band b1i0_62.5; High dose, 3d): 56.24 | band intensity b1i0_62.5 (band b1i0_62.5; High dose, 7d): 81.59 | band intensity b1i0_62.5 (band b1i0_62.5; High dose, 14d): 57.74 | band intensity b1i0_62.5 (band b1i0_62.5; Low dose, 1d): 74.66 | band intensity b1i0_62.5 (band b1i0_62.5; Low dose, 3d): 70.37 | band intensity b1i0_62.5 (band b1i0_62.5; Low dose, 7d): 62.54 | band intensity b1i0_62.5 (band b1i0_62.5; Low dose, 14d): 63.7 | band intensity b1i0_63.7 (band b1i0_63.7; High dose, 1d): 240.7 | band intensity b1i0_63.7 (band b1i0_63.7; High dose, 3d): 120.1 | band intensity b1i0_63.7 (band b1i0_63.7; High dose, 7d): 313.4 | band intensity b1i0_63.7 (band b1i0_63.7; High dose, 14d): 41.88 | band intensity b1i0_63.7 (band b1i0_63.7; Low dose, 1d): 152.6 | band intensity b1i0_63.7 (band b1i0_63.7; Low dose, 3d): 171.4 | band intensity b1i0_63.7 (band b1i0_63.7; Low dose, 7d): 132.3 | band intensity b1i0_63.7 (band b1i0_63.7; Low dose, 14d): 161.6 | band intensity b1i0_69.4 (band b1i0_69.4; High dose, 1d): 241.7 | band intensity b1i0_69.4 (band b1i0_69.4; High dose, 3d): 251.2 | band intensity b1i0_69.4 (band b1i0_69.4; High dose, 7d): 255.9 | band intensity b1i0_69.4 (band b1i0_69.4; High dose, 14d): 268.8 | band intensity b1i0_69.4 (band b1i0_69.4; Low dose, 1d): 272.5 | band intensity b1i0_69.4 (band b1i0_69.4; Low dose, 3d): 190.6 | band intensity b1i0_69.4 (band b1i0_69.4; Low dose, 7d): 282.9 | band intensity b1i0_69.4 (band b1i0_69.4; Low dose, 14d): 286.5

CC(=O)[C@@]1(O)CC[C@H]2[C@@H]3C=C(Cl)C4=CC(=O)[C@@H]5C[C@@H]5[C@]4(C)[C@H]3CC[C@@]21C [Cyproterone]
band intensity b1i0_51.7 (band b1i0_51.7; High dose, 1d): 35.07 | band intensity b1i0_51.7 (band b1i0_51.7; High dose, 3d): 32.34 | band intensity b1i0_51.7 (band b1i0_51.7; High dose, 7d): 22.63 | band intensity b1i0_51.7 (band b1i0_51.7; High dose, 14d): 19.9 | band intensity b1i0_51.7 (band b1i0_51.7; Low dose, 1d): 19.27 | band intensity b1i0_51.7 (band b1i0_51.7; Low dose, 3d): 21.87 | band intensity b1i0_51.7 (band b1i0_51.7; Low dose, 7d): 12.77 | band intensity b1i0_53.0 (band b1i0_53.0; High dose, 1d): 93.39 | band intensity b1i0_53.0 (band b1i0_53.0; High dose, 3d): 99.72 | band intensity b1i0_53.0 (band b1i0_53.0; High dose, 7d): 99.01 | band intensity b1i0_53.0 (band b1i0_53.0; High dose, 14d): 40.97 | band intensity b1i0_53.0 (band b1i0_53.0; Low dose, 1d): 111.6 | band intensity b1i0_53.0 (band b1i0_53.0; Low dose, 3d): 99.85 | band intensity b1i0_53.0 (band b1i0_53.0; Low dose, 7d): 99.01 | band intensity b1i0_54.5 (band b1i0_54.5; High dose, 1d): 98.48 | band intensity b1i0_54.5 (band b1i0_54.5; High dose, 3d): 80.83 | band intensity b1i0_54.5 (band b1i0_54.5; High dose, 7d): 81.21 | band intensity b1i0_54.5 (band b1i0_54.5; High dose, 14d): 69.78 | band intensity b1i0_54.5 (band b1i0_54.5; Low dose, 1d): 94.41 | band intensity b1i0_54.5 (band b1i0_54.5; Low dose, 3d): 93.73 | band intensity b1i0_54.5 (band b1i0_54.5; Low dose, 7d): 98.2 | band intensity b1i0_57.4 (band b1i0_57.4; High dose, 1d): 1105 | band intensity b1i0_57.4 (band b1i0_57.4; High dose, 3d): 1021 | band intensity b1i0_57.4 (band b1i0_57.4; High dose, 7d): 1105 | band intensity b1i0_57.4 (band b1i0_57.4; High dose, 14d): 775.5 | band intensity b1i0_57.4 (band b1i0_57.4; Low dose, 1d): 1285 | band intensity b1i0_57.4 (band b1i0_57.4; Low dose, 3d): 1338 | band intensity b1i0_57.4 (band b1i0_57.4; Low dose, 7d): 1437 | band intensity b1i0_60.7 (band b1i0_60.7; High dose, 1d): 53.9 | band intensity b1i0_60.7 (band b1i0_60.7; High dose, 3d): 46.42 | band intensity b1i0_60.7 (band b1i0_60.7; High dose, 7d): 73.61 | band intensity b1i0_60.7 (band b1i0_60.7; High dose, 14d): 57.48 | band intensity b1i0_60.7 (band b1i0_60.7; Low dose, 1d): 76.15 | band intensity b1i0_60.7 (band b1i0_60.7; Low dose, 3d): 72.42 | band intensity b1i0_60.7 (band b1i0_60.7; Low dose, 7d): 80.22 | band intensity b1i0_62.5 (band b1i0_62.5; High dose, 1d): 49.19 | band intensity b1i0_62.5 (band b1i0_62.5; High dose, 3d): 64.93 | band intensity b1i0_62.5 (band b1i0_62.5; High dose, 7d): 71.82 | band intensity b1i0_62.5 (band b1i0_62.5; High dose, 14d): 148.3 | band intensity b1i0_62.5 (band b1i0_62.5; Low dose, 1d): 62.41 | band intensity b1i0_62.5 (band b1i0_62.5; Low dose, 3d): 59.37 | band intensity b1i0_62.5 (band b1i0_62.5; Low dose, 7d): 70.85 | band intensity b1i0_63.7 (band b1i0_63.7; High dose, 1d): 51.36 | band intensity b1i0_63.7 (band b1i0_63.7; High dose, 3d): 111.8 | band intensity b1i0_63.7 (band b1i0_63.7; High dose, 7d): 154.7 | band intensity b1i0_63.7 (band b1i0_63.7; High dose, 14d): 18.52 | band intensity b1i0_63.7 (band b1i0_63.7; Low dose, 1d): 68.2 | band intensity b1i0_63.7 (band b1i0_63.7; Low dose, 3d): 110.4 | band intensity b1i0_63.7 (band b1i0_63.7; Low dose, 7d): 146 | band intensity b1i0_69.4 (band b1i0_69.4; High dose, 1d): 254.9 | band intensity b1i0_69.4 (band b1i0_69.4; High dose, 3d): 250.7 | band intensity b1i0_69.4 (band b1i0_69.4; High dose, 7d): 317.9 | band intensity b1i0_69.4 (band b1i0_69.4; High dose, 14d): 528.3 | band intensity b1i0_69.4 (band b1i0_69.4; Low dose, 1d): 243.2 | band intensity b1i0_69.4 (band b1i0_69.4; Low dose, 3d): 270.7 | band intensity b1i0_69.4 (band b1i0_69.4; Low dose, 7d): 326.3
